{
  "source": "patent US20250314636A1",
  "about": "“METHOD OF PREPARING AND EXPANDING A POPULATION OF IMMUNE CELLS FOR CANCER THERAPY, POTENCY ASSAY FOR TUMOR RECOGNITION, BIOLOGICAL VACCINE PREPARATION AND EPITOPETARGET FOR ANTIBODIES” (FUNDAÇÃO D. ANNA DE SOMMER CHAMPALIMAUD E DR. CARLOS MONTEZ …, priority 2022, published 2025)",
  "key": {"NRLP3 pathway": {"system": "NRLP3 pathway", "experiment": "Testing of the NRLP3 pathway: KRAS peptide recognition by TIL expanded with or without MCC950", "assay_type": "cell-based, human", "conditions": "TIL expanded with cardiolipin in presence of MCC950 (10 uM/mL)", "description": "The number of peptide targets recognized as well as the amount of IFN-γ in pg/10e^4 TIL/target/7 days was analyzed and compared in the cardiolipin-positive versus negative group testing with Human IFN-γ ELISA basic kit (HRP).\nSince cardiolipin has been reported to activate the NRLP3 inflammasome, aliquots of these same TIL preparation were expanded and the absence or presence of the NRLP3 inhibitor (MCC950) was investigated."}, "TIL [1]": {"system": "TIL", "experiment": "Peptide recognition assay in TIL (IFN-γ ELISA / IL-17 in supernatant, 7 days)", "assay_type": "cell-based, human", "description": "Peptides from tumor-associated antigens (TAAs), listed in Table 5 were placed at 1 ug/well in duplicates using anti-CD3 at 30 ng/mL as well as PHA at 5 μg/mL as positive controls.\nThe differences in TIL versus PBMCs can also be defined by peptide reactivity. 10e^4 TIL or 10e^4 PBMC/well were co-cultured with the peptides listed in Table 11 below for 7 days and the supernatants were tested for IFN-γ production."}, "[2]": {"system": "human IgG in serum from patients with pancreatic cancer", "experiment": "ELISA of serum IgG binding to MUC4 epitope PVTSLSSVSTGDTTP (OD 405 nm)", "conditions": "sera from patient S1 and S15, dilutions 1:2 and 1:10", "text": "The MUC4 peptide is targeted by human IgG in serum from patients with cancer. […] The epitope PVTSLSSVSTGDTTP was linked to an ELISA plate via a streptavidin-biotin scaffold and tested for IgG recognition in serum from different patients with pancreatic cancer. The optical density (OD) read at 405 nm wavelength was used to detect IgG binding in sera from patients showing that some individuals have a higher IgG concentration to this epitope as compared to other patients, some patients have no IgG reactivity at all showing that there is individual IgG reactivity to this distinct MUC4 epitopes. The anti-human IgG directed antibody A2064 clone GG-5 from Sigma-Aldrich coupled to Alkaline-Phosphatase was used to detect epitope reactivity. The assay layout and reactivity reading are shown in Tables 12 and 13 (layouts and ODs, respectively) below.\nSera from different patients with PDAC (labeled as S1-S15) were incubated with the target epitope at different dilutions in phosphate-buffered saline (PBS) (1:2 and 1:10) and reactivity was tested based on the OD reading."}, "PBMCs": {"system": "PBMCs", "experiment": "Percentage of γδ T-cells in healthy individuals PBMCs expanded in presence or absence of cardiolipin", "assay_type": "cell-based, human", "description": "PBMCs of healthy individuals expanded in the presence of cardiolipin without interleukins increased the frequency of γδ T-cells (Table 4).\n(§1) TIL and PBMCs were analyzed using several DuraClone (Beckman Coulter) Panels, always with addition of the LIVE/DEAD™ Fixable Yellow Dead Cell Stain Kit: DuraClone IM T-cell Subsets tube adding LAG-3 BV650 and CD95 BV785 and Duraclone IM TCRs tube. Besides, another panel with commercially available antibodies were used, which included CD4 Pacific Blue, CD8 KromeOrange, CXCR3 BV650, CD95 BV785, CD103 FITC, CCR7 PE, CCR4 PE/Dazzle, TCR pan-γ/δ PC5.5, CCR6 PC-7, CCR9 Alexa Fluor 647, CD45RA AF700, CD3 APC-A750 and LIVE/DEAD™ Fixable Yellow Dead Cell Stain Kit. After 15 minutes incubation, T-cells and PBMCs were washed in PBS-2% FBS and acquired using a CytoFlex LX flow cytometer from Beckman Coulter. Analysis was performed using FlowJo software."}, "TIL [3]": {"system": "TIL", "experiment": "Flow cytometric analysis of TIL and PBMC phenotype", "assay_type": "cell-based, human", "description": "Different phenotypes in TIL were observed, when using different tumor regions in the three-expansion step herein proposed.\nγδ T-cells were negatively sorted using a commercial kit from Stem Cell. Purity of negatively sorted cells was tested by flow cytometry using the DURAclone panel IM TCRs.\nas §1"}, "TIL [4]": {"system": "TIL", "experiment": "CD107a assay", "assay_type": "cell-based, human", "conditions": "TIL with or without cardiolipin", "description": "Briefly, positive control cells were stimulated with 1 μg/mL of PMA; non-stimulated cells served as the control and data were performed in triplicates. Both stimulated and non-stimulated cells were incubated with a protein transport inhibitor containing monensin (BD, 51-2092kz) and CD107a PE antibody (clone H4A3, BD 555801) for 2 hours. Then an extracellular staining was performed using CD3 PE-Cy7 (clone UCHT1, BD 563423), CD4 V450 (clone RPA-T4, BD 561838) and CD8 APC-Cy7 (clone SK1, BD 557834). Control cells are PBMCs that had been cultured for 48-72 hours in the presence of 300 IU/mL IL-2 and 50 IU/mL IL-15. The assay is considered as positive if the positive control cells (PMA stimulated) have at least 2× the SD of the triplicates of the negative control."}, "TIL [5]": {"system": "TIL", "experiment": "RNA sequencing, differential gene expression in TIL grown with and without cardiolipin", "assay_type": "cell-based, human", "conditions": "TIL expanded with vs without cardiolipin, DESeq2 FDR <0.10", "description": "RNA from TIL was isolated using the commercially available RNeasy Mini Kit (Qiagen) and sequencing was done using the Illumina NovaSeq 6000 system with 100 bp paired end read lengths. Adapters were removed.\nTranscriptome sequencing data alignment was performed using STAR two-pass method to human genome build hg19. Duplicates were marked using the Picard's MarkDuplicates tool and reads were split using the GATK SplitNCigarReads tool and variants were called using Varscan2. STAR-Fusion was used to identify candidate fusion transcripts and its output was annotated using AGFusion.\nRNA sequencing was performed in seven of TIL expansions (i.e. from seven individual patients) with or without cardiolipin and tested for differential gene expression (FIG. 15). Genes with extremely low counts across samples were removed because they provide little evidence for differential expression and may interfere with some of the statistical approximations used."}, "TIL [6]": {"system": "TIL", "experiment": "Treg detection assay", "assay_type": "cell-based, human", "conditions": "TIL with or without cardiolipin", "description": "Briefly, cells were stained extracellularly with CD3 PE (clone UCHT-1, BD 555749), CD4 V450 (clone RPA-T4, BD 561838), CD8 APC-Cy7 (clone SK1, BD 557834), CD25 PE-Cy7 (clone 2A3, BD 335824), CD127 APC (clone R34.34, Beckman Coulter B42026) for 15 minutes in ice and then washed and permeabilized using Biolegend's True-Nuclear Transcription Factor Buffer Set according to manufacturer's instructions.\nCells were then stained intracellularly with FOXP3 Alexa488 antibody (clone 259D/C7, BD 560047) or an IgG1 isotype control Alexa 488 (BD 557702), and CD3 PE (clone UCHT-1, BD 555749). Tregs cells were identified by flow cytometry as CD3^+ CD4^+ CD25^high CD127^−FoxP3^+)."}, "TIL [7]": {"system": "TIL", "experiment": "IFN-γ induction assay / cytokine production of TIL after anti-CD3 crosslinking, 24 h, 10e5 cells", "assay_type": "cell-based, human", "conditions": "TIL with or without cardiolipin", "description": "In table 3, TIL were seated in at 10e^5 cells/well in triplicates in medium containing IL-2/IL-7/IL-15+cardiolipin (medium) or in IL-2/IL-7/IL-15+cardiolipin plus anti-CD3-IgG1 at 30 ng/mL to crosslink the T-cell receptor.\nSupernatants were harvested after 24 hours in order to test for maximal T-cell activation defined in 24 hrs./10e^5 cells for comparison. The delta between maximal stimulation (b) and constitutive cytokine production (A) is summarized in row “delta (B-A)”.\nThis assay is used to measure the IFN-γ production after anti-CD3 induced activation during 24 h in 10^5 cells."}, "[8]": {"system": "PBMCs from healthy individuals", "experiment": "Cardiolipin titration: IFN-γ and IL-17A production in PBMCs and whole blood", "assay_type": "cell-based, human", "conditions": "250 nM cardiolipin, PBMCs from healthy individuals stimulated with OKT3 (30 ng/mL)"}},
  "note": "“And” between values parts separate entries of the source, which are not always exact repeats. Equal values may be shown once. “Also recorded” adds a separate entry of the source.",
  "data": [
    {"molecule": "CC(C)(O)c1coc(S(=O)(=O)NC(=O)Nc2c3c(cc4c2CCC4)CCC3)c1", "note": "[MCC950]", "values": [
      {"measurement": "tumor associated antigen (KRAS epitope) recognition in TIL", "setting": "NRLP3 pathway", "result": "statistically reduces the function of cardiolipin; also recorded: reduces the tumor associated antigen recognition in TIL"}
    ]},
    {"molecule": "PVTSLSSVSTGDTTP [MUC4-P3 [Mut][WT]]", "values": [
      {"measurement": "Pancreatic TIL D1599 IFN-y", "setting": "TIL [1]; Pancreatic TIL D1599", "result": 0, "unit": "pg/mL"},
      {"measurement": "Pancreatic TILD1599 IL 17", "setting": "TIL [1]; Pancreatic TIL D1599", "result": 2, "unit": "pg/mL"},
      {"measurement": "IgG binding reactivity to the nominal MUC4 epitope", "setting": "[2]", "result": "strong IgG binding reactivity"}
    ]},
    {"molecule": "cardiolipin", "values": [
      {"measurement": "frequency of γδ T-cells", "setting": "PBMCs; PBMCs of healthy individuals expanded with cardiolipin without interleukins", "result": "increased"},
      {"measurement": "Percentage of γδ T-cells, w/CL", "setting": "PBMCs; healthy individuals PBMCs, presence of cardiolipin, without interleukins, single donors, listed as CL", "result": "10.5% and 9.32% and 26% and 10.9% and 22.9%"},
      {"measurement": "Percentage of γδ T-cells, w/CL, Average", "setting": "PBMCs; healthy individuals PBMCs, presence of cardiolipin, average of donors", "result": 15.92, "unit": "%"},
      {"measurement": "recognition of commonly shared tumor-associated antigens (KRAS, mesothelin) by TIL, IFN-γ production", "setting": "TIL [1]; TIL expanded in cardiolipin", "result": "recognized a high number of KRAS as well as mesothelin targets"},
      {"measurement": "T-cell maturation, activation, or exhaustion markers", "setting": "TIL [3]; CD4+, CD8+, double-positive, double-negative or γδ+ TIL, with vs without cardiolipin", "result": "not observed"},
      {"measurement": "frequency of γδ TIL", "setting": "TIL [3]; TIL expanded with IL-7, IL-15, IL-21 with vs without cardiolipin", "result": "increased"},
      {"measurement": "CD107 induction in TIL", "setting": "TIL [4]", "result": "no differences"},
      {"measurement": "CXCL9 gene expression", "setting": "TIL [5]", "result": "over-expressed"},
      {"measurement": "CXCL10 gene expression", "setting": "TIL [5]", "result": "over-expressed"},
      {"measurement": "KBTBD11 gene expression", "setting": "TIL [5]", "result": "statistically reduced"},
      {"measurement": "regulatory T-cells (Treg) in TIL", "setting": "TIL [6]", "result": "no differences"},
      {"measurement": "IFN-γ production in TIL", "setting": "TIL [7]", "result": "no differences"},
      {"measurement": "IL-17 production in TIL", "setting": "TIL [7]", "result": "no differences"},
      {"measurement": "production of IFN-γ", "setting": "[8]", "result": "favorable production of IFN-γ"}
    ]}
  ]
}
